Laboratory results from patent US11746103B2, “ALK-5 inhibitors and uses thereof” (Sumitomo Pharma Oncology, Inc., priority 2020, dated 2023).

Legend:
[1] = test system: phospho-SMAD2 (Ser 465/467) in A549 xenograft; test: A549 xenograft study, tumor phospho SMAD2; assay type: in vivo, mouse; conditions: for phospho SMAD2 levels in tumor (normalized to GAPDH): 10, 50, 75, 100 mg/Kg; for inhibition at 10 mg/kg / inhibition at 50 mg/kg / inhibition at 75 mg/kg / inhibition at 100 mg/kg: Mus musculus, A549, oral gavage, 3 hours after administration, read-out: Percent of p-SMAD2 inhibition compared to vehicle control
Source text: To test compounds for in vivo on-target activity (ALK5/TGF-βR1 inhibition), a study was completed using an A549 murine xenograft model. This model was utilized since an ALK5 inhibitor is expected to reduce the amount of the key TGF-β signaling molecule phosphoSMAD2 in the A549 xenograft cells. The TGF-β mediated phosphorylation in A549 cells takes place at amino acid residue four hundred and sixty-five and four hundred and sixty-seven (both are serine residues).
Eight-week old, female athymic nude mice (Charles River) were injected with approximately four million A549 cells (ATCC, CCL-185). The cells employed were harvested and resuspended in plain RPMI media (no phenol red added) and matrigel (Fisher Scientific) at a one to one ratio. Injection comprised a two-hundred microliter sample injected into the right hind flank of each mouse. Resulting tumors were measured every three days by caliper and as tumors reached an average of one hundred and thirty millimeters cubed, mice were randomized in groups of three.
All compounds were resuspended in 1-Methyl-2-pyrrolidinone (10%) plus 20% Solutol in water (90%). Galunisertib was included as a positive control and given at seventy-five milligram per kilogram to three mice. The drug suspensions were sonicated for fifteen minutes to generate a fine particle suspension before being administered to a subject. Mice were dosed (per oral gavage) at dose levels of one hundred mg/Kg, seventy-five mg/Kg, fifty mg/Kg and ten mg/Kg with three mice in each group. A vehicle control group with three mice was used to establish the baseline level of phospho SMAD2 in the tumor xenograft. Three hours after drug administration, tumors were harvested and stored at negative eighty degrees Celsius until further processing. The phospho SMAD2 levels were determined using the BioPlex Pro anti phospho-SMAD2 (Ser 465/467) beads from Biorad and this signal was normalized using GAPDH levels from each sample (Milliplex MAP GAPDH beads, Sigma/Millipore). Tumors were processed according to kit instructions and beads analyzed using the MagPix instrument by Luminex.

[2] = Longitudinal PK/PD analysis in A549 xenograft mouse model (plasma and tumor PK); assay type: in vivo; conditions: 75 mg/kg single oral dose
Method: In this study, p-SMAD2 (Ser465/Ser467) and a housekeeping gene (GAPDH) were measured at six timepoints from zero (established using vehicle-treated animals) up to twenty-four hours post dose for a single drug dose of seventy-five milligrams per kilogram per subject (three subjects per dosing group).
For this study, xenografts were prepared and implanted in mice as follows. At five weeks of age, female athymic nude mice (purchased from Charles River) were injected with approximately 3.2 million A549 cells (ATCC, CCL-185). Cells were harvested and resuspended in plain RPMI media (no phenol red added) and Matrigel (Corning 356237) at a one-to-one ratio, and two hundred-microliters of the cell suspension were injected into the right hind flank of each mouse. Tumors were measured every three days by caliper, and as tumors reached an average of ninety millimeters cubed, mice were randomized in groups of three. Each of the test compounds (Ex-10 and Ex-11) was resuspended in 1-methyl-2-pyrrolidinone (Sigma, 494496) (10%) plus 20% Solutol (Sigma 42966) in water (90%). The drug suspensions were sonicated for fifteen minutes to generate a fine particle suspension before being given to the test subjects. Subjects were dosed (per oral gavage) with the suspension. A vehicle control group with three mice was used to establish the baseline and timepoint zero of phospho-SMAD-2 in the tumor xenograft. The test compounds were administered to the respective subject groups at seventy-five milligrams per kilogram. Samples were obtained post administration of test compounds at 20 minutes, one hour, two hours, four hours, and twenty-four hours. Tumors were harvested, snap frozen and stored at negative eighty degrees Celsius until further processing. Plasma was collected from all animals by collecting whole blood via cardiac puncture, followed by centrifugation in tubes containing EDTA (BD, microtainer tubes, 365974). A group of three mice receiving vehicle only served as the zero timepoint for both drug groups. The phospho-SMAD-2 levels were determined using the Bio-Plex Pro™ Phospho-Smad2 (Ser465/Ser467) Set (BioRad 171V50019M). The phospho-SMAD-2 levels were normalized to GAPDH (MILLIPLEX MAP GAPDH Total Magnetic Bead MAPmate™, Millipore 46-667MAG) levels from each sample. All analytes were analyzed in a multiplex fashion with the Bio-Plex Pro Cell Signaling Reagent Kit (BioRad 171304006M). Frozen tumor samples (fifteen to thirty milligrams) were lysed in 100 μl lysis buffer, processed in a bead mill tube, and centrifuged. The resulting lysate was used at 1:50 dilution for the assay according to the manufacturer's instructions. Bead suspension was analyzed using the Luminex system (MAGPIX).

SMILES | observed level of p-SMAD2 as percent of vehicle-only group ([1]; 75 mg/Kg) [%] | phospho SMAD2 levels in tumor (normalized to GAPDH) [1] | inhibition at 10 mg/kg [1] [%] | inhibition at 50 mg/kg [1] [%] | inhibition at 75 mg/kg ([1]; 75 mg/Kg) [%] | inhibition at 100 mg/kg [1] [%] | drug in plasma and tumor at 24 hours post drug administration [2] | time of maximum drug concentration in plasma and tumor [2] | drug concentration in plasma and tumor over time [2]
Cc1cccc2c(Nc3ccnc(Nc4cccc(N5CCOCC5)c4)n3)cnnc12 [EX-11, N4-(8-methylcinnolin-4-yl)-N2-(3-morpholinophenyl)pyrimidine-2,4-diamine] | 7.5 | reduced the phopho SMAD2 levels (p-SMAD2) in a dose dependent fashion | 32.6 | 87.6 | 92.5 | 90.1 | cleared out of the system | around 4 hours | 
Cc1cccc2c(Nc3ccnc(Nc4ccc(N5CCOCC5)cc4)n3)cnnc12 [EX-10, N4-(8-methylcinnolin-4-yl)-N2-(4-morpholino-phenyl)-pyrimidine-2,4-diamine] |  | reduced the phopho SMAD2 levels (p-SMAD2) in a dose dependent fashion | 33.5 | 78.3 | 74.8 | 84.8 | cleared out of the system completely |  | spiked 20 minutes to 1-hour post drug administration and stayed high up to 4 hours post drug administration
